Results: US8846671B2, “Heterocyclic alkynyl benzene compounds and medical compositions and uses thereof” (Guangzhou Institute of Biomedicine and Health, Chinese …, priority 2010, dated 2014)
Values joined by “and” are separate entries in the source; they are usually repeats but may differ in a detail not shown here. Identical values can stand only once. Like-named read-outs stand apart in the source and are kept apart here.

What was measured:
[1] = system: K562 (human chronic myelogenous leukemia cell line); assay: tumor cell proliferation, MTT or CCK8 assay, 72 h incubation; format: cell-based; conditions: K562, 72 h, read-out: IC50 on tumor cell proliferation, K562
Protocol: (§1) The heterocyclic alkynyl benzene compounds at different concentrations (1×10^−10˜1×10^−5M) were incubated for 72 hours individually applied to 6 cell lines K562 (human CML cell line), MOLT-4 (human ALL cell line), U937 (human CML cell line), MEG-01 (human CML cell line), L78 (human lung cancer cell line), Ba/F3-T315I (mice Pro-B cells transformed with Bcr-AblT315I and STI57′-resistant cell line). After incubation for 72 hrs, cell proliferation was then determined by MTT assay or CCK8 assay, and 4 hr incubation is further conducted, the absorbance at 570 nm (CCK8, 450 nm, 650 nm) was measured using enzyme Microplate Reader. […] Based on the inhibition potency of the heterocyclic alkynyl benzene compounds on the cell proliferation, IC50 values were calculated and summarized in the Table 1 and Table 2 (The compounds used were synthesized by Examples 1-40, and the compounds are marked with Drug No. series in Table 1).

[2] = system: MEG-01 (Human megakaryoblastic leukaemia cell line); assay: as above; format: cell-based; conditions: MEG-01, 72 h, read-out: IC50 on tumor cell proliferation, MEG-01
Protocol: as §1

[3] = system: MOLT-4 (Human acute lymphoblastic leukemia cell line); assay: as above; format: cell-based; conditions: MOLT-4, 72 h, read-out: IC50 on tumor cell proliferation, MOLT-4
Protocol: as §1

U937 Cell line = assay: as above; format: cell-based; conditions: Homo sapiens, read-out: IC50 on tumor cell proliferation, U937
Protocol: as §1

[4] = system: K562R cells (imatinib-resistant cell line); assay: as above; format: cell-based; conditions: Homo sapiens, K-562R, read-out: IC50 on tumor cell proliferation, K562R cells
[5] = target: BAF3-T315I cells (Ba/F3 cell line stably expressing BCR/ABL T315I) (Homo sapiens, UniProt P00519, T315I, cells depend on it); assay: as above; format: cell-based, mice
Protocol: The heterocyclic alkynyl benzene compounds at different concentrations (1×10^−10˜1×10^−5M) were incubated for 72 hours individually applied to 6 cell lines K562 (human CML cell line), MOLT-4 (human ALL cell line), U937 (human CML cell line), MEG-01 (human CML cell line), L78 (human lung cancer cell line), Ba/F3-T315I (mice Pro-B cells transformed with Bcr-AblT315I and STI57′-resistant cell line). After incubation for 72 hrs, cell proliferation was then determined by MTT assay or CCK8 assay, and 4 hr incubation is further conducted, the absorbance at 570 nm (CCK8, 450 nm, 650 nm) was measured using enzyme Microplate Reader.

[6] = Pharmacokinetics and bioavailability in rats; format: in vivo; conditions: SD rats; corresponding pharmaceutical acceptable salt forms
Protocol: Pharmacokinetics and bioavailability in rats. […] The blood samples were collected at the proper time points after administration, add heparin-anticoagulant, and the supernatants of the blood samples were collected (3000 rpm, 10 min) and stored at -20° C. for HPLC-MS analysis. After protein-precipitation procedure with acetonitrile, supernatants were collected after 3000 rpm, 10 min for analysis with HPLC-MS. The data were analyzed with software DAS2.0 to separately acquire the parameters of compartment models and non-compartment models. The bioavailability was calculated according to AUC data.

[7] = Ba/F3 expressing BCR/ABL T315I, 72 h, Table 1, read-out: IC50 on tumor cell proliferation, BAF3-T315I cells
[8] = read-out: IC50 on tumor cell proliferation, BAF3-T315I cells, Ba/F3 expressing BCR/ABL T315I, 72 h, Table 1

Row | SMILES | IC50 ([1]; MTT or CCK8, nM) [nM] | IC50 ([2]; MTT or CCK8, nM) [nM] | IC50 ([3]; MTT or CCK8, nM) [nM] | IC50 (U937 Cell line; U-937, 72 h, MTT or CCK8, nM) [nM] | IC50 ([4]; imatinib-resistant K562R) [nM] | GI50 [5, 7] [nM] | IC50 [1] [nM] | IC50 [2] [nM] | IC50 [3] [nM] | IC50 (U937 Cell line; U-937, 72 h) [nM] | GI50 [5, 8] | IC50 [4] [nM] | also measured
1 | Cc1ncn(-c2cc(NC(=O)c3ccc(C)c(C#Cc4cnc5ccnn5c4)c3)cc(C(F)(F)F)c2)n1 [D818, 4-methyl-N-(3-(3-methyl-1H-1,2,4-triazol-1-yl)-5-(trifluoromethyl)phenyl)-3-(2-(pyrazolo[1,5-a]pyrimidin-6-yl)ethynyl)benzamide] | 1.38 | 210 | > 100 | > 100 | 142 | 394 |  |  |  |  |  |  | 
2 | Cc1ccc(C(=O)Nc2ccc(CN3CCN(C)CC3)c(C(F)(F)F)c2)cc1C#Cc1cnc2ccnn2c1 [D856, 4-methyl-N-(4-((4-methylpiperazin-1-yl)methyl)-3-(trifluoromethyl)phenyl)-3-(2-(pyrazolo[1,5-a]pyrimidin-6-yl)ethynyl)benzamide] |  |  |  |  | 67 | 10.8 |  |  |  |  |  |  | IC50 ([1]; MTT or CCK8, no unit in cell): 2.24 nM; IC50 ([3]; MTT or CCK8, no unit in cell): 499 nM; IC50 (U937 Cell line; U-937, 72 h, MTT or CCK8, no unit in cell): 2000 nM; pharmacokinetics parameters, overall judgement [6]: adequate pharmacokinetics parameters
3 | Cc1cn(-c2cc(NC(=O)c3ccc(C)c(C#Cc4cnc(NC(C)(C)C)nc4)c3)cc(C(F)(F)F)c2)cn1 [D806, 3-(2-(2-(tert-butylamino)pyrimidin-5-yl)ethynyl)-4-methyl-N-(3-(4-methyl-1H-imidazol-1-yl)-5-(trifluoromethyl)phenyl)benzamide] |  |  |  |  |  |  | > 100 | 131 | > 100 | 147 | 1890 nM |  | 
4 | Cc1cn(-c2cc(NC(=O)c3ccc(C)c(C#Cc4cnc(N5CCCCC5)nc4)c3)cc(C(F)(F)F)c2)cn1 [D797, 4-methyl-N-(3-(4-methyl-1H-imidazol-1-yl)-5-(trifluoromethyl)phenyl)-3-(2-(2-(piperidin-1-yl)pyrimidin-5-yl)ethynyl)benzamide] |  |  |  |  |  |  | > 100 | > 100 | > 10 | > 100 | 13000 nM | 3370 | 
5 | Cc1ccc(C(=O)Nc2cc(-n3ccnc3)cc(C(F)(F)F)c2)cc1C#Cc1cnc2ccnn2c1 [D819, N-(3-(1H-imidazol-1-yl)-5-(trifluoromethyl)phenyl)-4-methyl-3-(2-(pyrazolo[1,5-a]pyrimidin-6-yl)ethynyl)benzamide] | 1.5 | 122 | 146 | 2210 | 146 | 3120 |  |  |  |  |  |  | 
6 | Cc1cn(-c2cc(NC(=O)c3ccc(C)c(C#Cc4cnc(NCCO)nc4)c3)cc(C(F)(F)F)c2)cn1 [D820, 3-(2-(2-(2-hydroxyethylamino)pyrimidin-5-yl)ethynyl)-4-methyl-N-(3-(4-methyl-1H-imidazol-1-yl)-5-(trifluoromethyl)phenyl)benzamide] |  |  |  |  |  |  | 1.37 | > 100 | 134 | > 100 | 276 nM | 35.2 | 
7 | Cc1cn(-c2cc(NC(=O)c3ccc(C)c(C#Cc4cnc(N)nc4)c3)cc(C(F)(F)F)c2)cn1 [D803, 3-(2-(2-aminopyrimidin-5-yl)ethynyl)-4-methyl-N-(3-(4-methyl-1H-imidazol-1-yl)-5-(trifluoromethyl)phenyl)benzamide] |  |  |  |  |  |  | 1.52 | > 100 | 132 | 147 | 124 nM and 85.8 nM | 63.3 | 
8 | Cc1cn(-c2cc(NC(=O)c3ccc(C)c(C#Cc4cnc5ncnn5c4)c3)cc(C(F)(F)F)c2)cn1 [D798, 3-(2-([1,2,4]-triazolo[1,5-a]pyrimidin-6-yl)ethynyl)-4-methyl-N-(3-(4-methyl-1H-imidazol-1-yl)-5-(trifluoromethyl)phenyl)benzamide] | 34 | > 100 | > 10 | > 100 | 1220 | 1860 |  |  |  |  |  |  | 
9 | Cc1ccc(C(=O)Nc2cc(-n3ccnc3)cc(C(F)(F)F)c2)cc1C#Cc1cnc(NC2CC2)nc1 [D729, N-(3-(1H-imidazol-1-yl)-5-(trifluoromethyl)phenyl)-3-(2-(2-(cyclopropylamino)pyrimidin-5-yl)ethynyl)-4-methylbenzamide] | 2.09 |  |  |  | 72.7 | 49.7 |  |  |  |  |  |  | IC50 ([2]; MTT or CCK8, no unit in cell): 6580 nM; IC50 ([3]; MTT or CCK8, no unit in cell): 5750 nM; GI50 ([5]; Ba/F3 carrying T315I Bcr-Abl, STI571-resistant, Table 2, read-out: IC50 on the cell proliferation of Ba/F3 (T315I)): < 100 nM
